# Like-named read-outs stand apart in the source and are kept apart here.
# How the values were obtained:
# MM.1S = assay: CCK-8 proliferation, MM.1S; type: cell-based; settings: Homo sapiens, MM1.S, MM.1S cells, read-out: Inhibitory activity (IC50, nM) on tumor cell proliferation, MM.1S
# Procedure: (§1) The tumor cells used herein were cultured in a cell culture medium listed in table A1 at 37°C in an incubator with 5% CO2. Prior to experimentation, all cell lines used were correctly identified by STR profiling, and tested negative for mycoplasma contamination using a mycoplasma detection kit through routine screenings. Table A1. Tumor cells and cell culture medium used in the present disclosure
# (§2) IC50 values of the compounds of the present disclosure (including the compounds in Table 1, and compounds of examples) were measured using the Meilun Cell Counting Kit-8 kit from Dalian Meilun Biotech Co., Ltd. Assay details are as follows: tumor cells were seeded in a 96-well plate at a density listed in Table A2. After 24h, 100 µL of the inoculated cells were treated with 0.5µL of the compounds of the present disclosure (including the compounds in Tables 1 and 2, and compounds of examples) at 10 different successively decreasing concentrations (starting at the highest concentration of 10µM; 5-fold serial dilutions). After the cells were treated with the compounds of the present disclosure for a period of time, the cell viability detection reagent was added to the culture medium for cell viability assessment according to the instructions provided with the CCK-8 kit. […] The growth inhibition of the compounds of the present disclosure on cells was plotted by Prism Graphpad software, and the IC50 values of the compounds of the present disclosure were calculated therefrom. […] Seeding protocol and treatment time for tumor cells
# SR = assay: CCK-8 proliferation, SR; type: cell-based, Human; settings: Homo sapiens, SR cells, read-out: Inhibitory activity (IC50, nM) on tumor cell proliferation, SR
# Procedure: as §1, §2
# MCF7 = assay: CCK-8 proliferation, MCF7 (MCF-7); type: cell-based; settings: Homo sapiens, MCF7; Table B6, compounds designed based on the ALK inhibitors; MCF-7 cells; read-out: Inhibitory activity (IC50, nM) on tumor cell proliferation, MCF-7
# Procedure: as §1, §2
# H2228 = assay: CCK-8 proliferation, NCI-H2228 (H2228); type: cell-based; settings: Homo sapiens, NCI-H2228; Table B6, compounds designed based on the ALK inhibitors; H2228 cells; read-out: Inhibitory activity (IC50, nM) on tumor cell proliferation, H2228
# Procedure: as §1, §2
# H1975 = assay: CCK-8 proliferation, NCI-H1975 (H1975); type: cell-based, Human; settings: Homo sapiens, NCI-H1975; Table B6, compounds designed based on the ALK inhibitors; H1975 cells; read-out: Inhibitory activity (IC50, nM) on tumor cell proliferation, H1975
# Procedure: as §1, §2
# [1] = Table B10, compounds designed based on the IRAK4 inhibitors
# [2] = Table B6, compounds designed based on the ALK inhibitors
SMILES,IC50 (MM.1S; [1]),IC50 (MCF7),IC50 (H2228),IC50 (H1975),IC50 (MM.1S; [2]),IC50 (SR; [1]),IC50 (SR; [2])
"O=C1CCC(c2ccc(CN3CCN(Cc4ccc5c(c4)nc(NC(=O)c4cccc(C(F)(F)F)c4)n5[C@H]4CC[C@@H](CO)CC4)CC3)cc2)C(=O)N1 (some centres unmarked) [GT-04978, N-(5-((4-(4-(2,6-dioxopiperidin-3-yl)benzyl)piperazin-1-yl)methyl)-1-((1s,4s)-4-(hydroxymethyl)cyclohexyl) -1H-benzo[d]imidazol-2-yl)-3-(trifluoromethyl)benzamide]",500 to 1000 nM,–,–,–,–,100 to 500 nM,–
"O=C1CCN(c2ccc(CN3CCC(n4cc(NC(=O)c5cnn6ccc(N7C[C@H]8C[C@@H]7CO8)nc56)c(C(F)F)n4)CC3)nc2)C(=O)N1 [GT-05053, 5-((1R,4R)-2-oxa-5-azabicyclo[2.2.1]heptan-5-yl)-N-(3-(difluoromethyl)-1-(1-((5-(2,4-dioxotetrahydropyrimidin-1(2H)-yl)pyridin-2-yl)methyl)piperidin-4-yl)-1H-pyrazol-4-yl)pyrazolo[1,5-a]pyrimidine-3-carboxamide]",500 to 1000 nM,–,–,–,–,–,–
"CCc1cc2c(cc1N1CCC(N3CCN(Cc4ccc(N5CCC(=O)NC5=O)cc4)CC3)CC1)C(C)(C)c1[nH]c3cc(C#N)ccc3c1C2=O [GT-07307, 8-(4-(4-(4-(2,4-dioxotetrahydropyrimidin-1(2H)-yl)benzyl)piperazin-1-yl)piperidin-1-yl)-9-ethyl-6,6-dimethyl-11-oxo-6,11-dihydro-5H-benzo[b]carbazole-3-carbonitrile]",–,100 to 500 nM,100 to 500 nM,–,–,–,10 to 50 nM
"COc1cc(N2CCN(Cc3ccc(N4CCC(=O)NC4=O)nc3)CC2)ccc1Nc1ncc(Cl)c(Nc2ccccc2P(C)(C)=O)n1 [GT-07350, 1-(5-((4-(4-((5-chloro-4-((2-(dimethylphosphoryl)phenyl)amino)pyrimidin-2-yl)amino)-3-methoxyphenyl)piperazin-1-yl)methyl)pyridin-2-yl)dihydropyrimidine-2,4(1H,3H)-dione]",–,–,100 to 500 nM,500 to 1000 nM,–,–,50 to 100 nM
"Cc1cc(Nc2ncc(Cl)c(Nc3ccccc3S(=O)(=O)C(C)C)n2)c(OC(C)C)cc1C1CCN(Cc2ccnc(C3CCC(=O)NC3=O)c2)CC1 (centres unmarked) [GT-07599, 3-(4-((4-(4-((5-chloro-4-((2-(isopropylsulfonyl)phenyl)amino)pyrimidin-2-yl)amino)-5-isopropoxy-2-methylphenyl)piperidin-1-yl)methyl)pyridin-2-yl)piperidine-2,6-dione]",–,100 to 500 nM,100 to 500 nM,–,500 to 1000 nM,–,10 to 50 nM
"COc1cc(N2CCC(N(C)Cc3cc(N4CCC(=O)NC4=O)ncc3F)CC2)ccc1Nc1ncc(Cl)c(Nc2ccccc2P(C)(C)=O)n1 [GT-07693, 1-(4-(((1-(4-((5-chloro-4-((2-(dimethylphosphoryl)phenyl)amino)pyrimidin-2-yl)amino)-3-methoxyphenyl)piperidin-4-yl)(methyl)amino)methyl)-5-fluoropyridin-2-yl)dihydropyrimidine-2,4(1H,3H)-dione]",–,100 to 500 nM,100 to 500 nM,100 to 500 nM,–,–,10 to 50 nM
"CCc1cc2c(cc1N1CCC(N3CCN(Cc4ccc(C5CCC(=O)NC5=O)cn4)CC3)CC1)C(C)(C)c1[nH]c3cc(C#N)ccc3c1C2=O (centres unmarked) [GT-07705, 8-(4-(4-((5-(2,6-dioxopiperidin-3-yl)pyridin-2-yl)methyl)piperazin-1-yl)piperidin-1-yl)-9-ethyl-6,6-dimethyl-11-oxo-6,11-dihydro-5H-benzo[b]carbazole-3-carbonitrile]",–,100 to 500 nM,50 to 100 nM,500 to 1000 nM,–,–,1 to 10 nM
"COc1cc(N2CCN(Cc3cc(N4CCC(=O)NC4=O)ncc3F)CC2)ccc1Nc1ncc(Cl)c(Nc2ccccc2P(C)(C)=O)n1 [GT-07707, 1-(4-((4-(4-((5-chloro-4-((2-(dimethylphosphoryl)phenyl)amino)pyrimidin-2-yl)amino)-3-methoxyphenyl)piperazin-1-yl)methyl)-5-fluoropyridin-2-yl)dihydropyrimidine-2,4(1H,3H)-dione]",–,500 to 1000 nM,100 to 500 nM,500 to 1000 nM,–,–,10 to 50 nM
"COc1cc(N2CCN(Cc3ccnc(N4CCC(=O)NC4=O)c3)CC2)ccc1Nc1ncc(Cl)c(Nc2ccccc2P(C)(C)=O)n1 [GT-07708, 1-(4-((4-(4-((5-chloro-4-((2-(dimethylphosphoryl)phenyl)amino)pyrimidin-2-yl)amino)-3-methoxyphenyl)piperazin-1-yl)methyl)pyridin-2-yl)dihydropyrimidine-2,4(1H,3H)-dione]",–,500 to 1000 nM,100 to 500 nM,100 to 500 nM,–,–,10 to 50 nM
"COc1cc(N2CCN(Cc3cc(C4CCC(=O)NC4=O)cnc3F)CC2)ccc1Nc1ncc(Cl)c(Nc2ccccc2P(C)(C)=O)n1 (centres unmarked) [GT-07710, 3-(5-((4-(4-((5-chloro-4-((2-(dimethylphosphoryl)phenyl)amino)pyrimidin-2-yl)amino)-3-methoxyphenyl)piperazin-1-yl)methyl)-6-fluoropyridin-3-yl)piperidine-2,6-dione]",–,100 to 500 nM,500 to 1000 nM,500 to 1000 nM,–,–,10 to 50 nM
"COc1cc(N2CCN(Cc3ccnc(C4CCC(=O)NC4=O)c3)CC2)ccc1Nc1ncc(Cl)c(Nc2ccccc2P(C)(C)=O)n1 (centres unmarked) [GT-07712, 3-(4-((4-(4-((5-chloro-4-((2-(dimethylphosphoryl)phenyl)amino)pyrimidin-2-yl)amino)-3-methoxyphenyl)piperazin-1-yl)methyl)pyridin-2-yl)piperidine-2,6-dione]",–,–,100 to 500 nM,500 to 1000 nM,–,–,10 to 50 nM

# More lines, main results first:
IC50 (MM.1S; [1]),IC50 (MCF7),IC50 (H2228),IC50 (H1975),IC50 (MM.1S; [2]),SMILES,IC50 (SR; [1]),IC50 (SR; [2])
–,500 to 1000 nM,50 to 100 nM,–,500 to 1000 nM,"Cc1cc(Nc2ncc(Cl)c(Nc3ccccc3S(=O)(=O)C(C)C)n2)c(OC(C)C)cc1C1CCN(Cc2cncc(N3CCC(=O)NC3=O)c2)CC1 [GT-07597, 1-(5-((4-(4-((5-chloro-4-((2-(isopropylsulfonyl)phenyl)amino)pyrimidin-2-yl)amino)-5-isopropoxy-2-methylphenyl)piperidin-1-yl)methyl)pyridin-3-yl)dihydropyrimidine-2,4(1H,3H)-dione]",–,10 to 50 nM
–,100 to 500 nM,10 to 50 nM,–,500 to 1000 nM,"Cc1cc(Nc2ncc(Cl)c(Nc3ccccc3S(=O)(=O)C(C)C)n2)c(OC(C)C)cc1C1CCN(Cc2cncc(C3CCC(=O)NC3=O)c2)CC1 (centres unmarked) [GT-07601, 3-(5-((4-(4-((5-chloro-4-((2-(isopropylsulfonyl)phenyl)amino)pyrimidin-2-yl)amino)-5-isopropoxy-2-methylphenyl)piperidin-1-yl)methyl)pyridin-3-yl)piperidine-2,6-dione]",–,10 to 50 nM
–,500 to 1000 nM,50 to 100 nM,–,–,"CCc1cc2c(cc1N1CCC(N3CCN(Cc4cc(N5CCC(=O)NC5=O)ncc4F)CC3)CC1)C(C)(C)c1[nH]c3cc(C#N)ccc3c1C2=O [GT-07700, 8-(4-(4-((2-(2,4-dioxotetrahydropyrimidin-1(2H)-yl)-5-fluoropyridin-4-yl)methyl)piperazin-1-yl)piperidin-1-yl)-9-ethyl-6,6-dimethyl-11-oxo-6,11-dihydro-5H-benzo[b]carbazole-3-carbonitrile]",–,1 to 10 nM
–,500 to 1000 nM,50 to 100 nM,–,–,"CCc1cc2c(cc1N1CCC(N3CCN(Cc4ccnc(N5CCC(=O)NC5=O)c4)CC3)CC1)C(C)(C)c1[nH]c3cc(C#N)ccc3c1C2=O [GT-07701, 8-(4-(4-((2-(2,4-dioxotetrahydropyrimidin-1(2H)-yl)pyridin-4-yl)methyl)piperazin-1-yl)piperidin-1-yl)-9-ethyl-6,6-dimethyl-11-oxo-6,11-dihydro-5H-benzo[b]carbazole-3-carbonitrile]",–,1 to 10 nM
–,–,50 to 100 nM,500 to 1000 nM,–,"CCc1cc2c(cc1N1CCC(N3CCN(Cc4ccnc(C5CCC(=O)NC5=O)c4)CC3)CC1)C(C)(C)c1[nH]c3cc(C#N)ccc3c1C2=O (centres unmarked) [GT-07704, 8-(4-(4-((2-(2,6-dioxopiperidin-3-yl)pyridin-4-yl)methyl)piperazin-1-yl)piperidin-1-yl)-9-ethyl-6,6-dimethyl-11-oxo-6,11-dihydro-5H-benzo[b]carbazole-3-carbonitrile]",–,1 to 10 nM

# Reference: patent publication EP4678638A1, “NEW E3 UBIQUITIN LIGASE LIGAND, PROTEIN DEGRADATION AGENT AND USE THEREOF” (priority 2023, dated 2024)
